The values below come from the Kinase Knowledgebase extract (Sharma et al. 2016).

What is called IC50 is the concentration at which inhibition is half-maximal.

The target of assay [1] is EGFR (human), P00533 [WT].
The target of assay [2] is EGFR (human), P00533 [Inhibition of EGFR(L858RT/790M) Kinase Activity].
For another assay, the target named is EGFR (human) (UniProt P00533). The settings on record: hcc827.
Chain of EGFR (human) (P00533 whole entry, looked up): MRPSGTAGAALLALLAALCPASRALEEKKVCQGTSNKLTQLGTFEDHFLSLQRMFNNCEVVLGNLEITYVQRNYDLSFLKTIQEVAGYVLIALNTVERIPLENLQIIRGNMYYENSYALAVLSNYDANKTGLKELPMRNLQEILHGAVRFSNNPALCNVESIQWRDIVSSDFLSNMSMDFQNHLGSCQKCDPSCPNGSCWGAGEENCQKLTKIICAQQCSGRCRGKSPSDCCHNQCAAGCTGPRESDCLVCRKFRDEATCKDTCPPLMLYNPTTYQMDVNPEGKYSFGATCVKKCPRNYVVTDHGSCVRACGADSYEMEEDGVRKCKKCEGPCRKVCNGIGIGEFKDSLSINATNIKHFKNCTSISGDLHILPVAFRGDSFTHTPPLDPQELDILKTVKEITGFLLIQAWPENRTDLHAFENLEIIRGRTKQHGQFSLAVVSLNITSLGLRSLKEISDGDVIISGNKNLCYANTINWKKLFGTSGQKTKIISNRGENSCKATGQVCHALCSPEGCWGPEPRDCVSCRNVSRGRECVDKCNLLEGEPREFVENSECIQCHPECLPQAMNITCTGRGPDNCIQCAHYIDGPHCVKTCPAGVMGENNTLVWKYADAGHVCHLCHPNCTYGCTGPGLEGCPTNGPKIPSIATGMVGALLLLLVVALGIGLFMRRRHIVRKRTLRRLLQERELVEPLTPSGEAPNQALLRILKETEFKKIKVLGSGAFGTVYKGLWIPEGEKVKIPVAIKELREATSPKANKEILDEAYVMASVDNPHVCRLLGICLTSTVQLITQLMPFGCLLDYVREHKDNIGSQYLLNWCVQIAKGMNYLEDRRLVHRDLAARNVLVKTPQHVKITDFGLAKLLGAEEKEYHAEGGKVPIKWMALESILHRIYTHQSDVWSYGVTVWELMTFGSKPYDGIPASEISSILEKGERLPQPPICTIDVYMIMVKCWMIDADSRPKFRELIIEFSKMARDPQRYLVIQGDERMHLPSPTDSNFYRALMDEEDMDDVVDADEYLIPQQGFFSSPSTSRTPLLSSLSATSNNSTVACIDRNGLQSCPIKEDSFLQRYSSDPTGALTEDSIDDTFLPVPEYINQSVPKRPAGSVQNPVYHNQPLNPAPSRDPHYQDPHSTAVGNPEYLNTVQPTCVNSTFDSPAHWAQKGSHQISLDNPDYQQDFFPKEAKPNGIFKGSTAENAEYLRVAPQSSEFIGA

Chain of EGFR (human), P00533 [Inhibition of EGFR(L858RT/790M) Kinase Activity] (P00533 whole entry, looked up, change not shown): as the sequence (P00533 whole entry, looked up) above
Chain of EGFR (human), P00533 [WT] (P00533 whole entry, looked up): as above

On to `C=CC(=O)N1CCc2c(sc3ncnc(N[C@H](C)c4ccccc4)c23)C1`, for which the IC50 in assay [1] is under 59 nM; in assay [2] it was 500 to 2500 nM; against EGFR (human), 1 to 99 nM.

For the molecule `C=CC(=O)N1CCc2c(sc3ncnc(N[C@H](COCc4ccccc4)c4ccccc4)c23)C1`, the IC50 in assay [1] was under 59 nM; in assay [2], 10 to 499 nM; against EGFR (human) it was 1 to 99 nM.

Take `C=CC(=O)N1CCc2c(sc3ncnc(N[C@H](COCc4cccc([N+](=O)[O-])c4)c4ccccc4)c23)C1`: the IC50 in assay [1] was under 59 nM; in assay [2], 10 to 499 nM; against EGFR (human), 1 to 99 nM.

For the molecule `C=CC(=O)N1CCc2c(sc3ncnc(N[C@H](CCO)c4ccccc4)c23)C1`, the figures for the IC50 (in assay [1]; in assay [2]; against EGFR (human)) were under 59 nM, 10 to 499 nM and 1 to 99 nM, respectively.

Consider `C=CC(=O)N1CCc2c(sc3ncnc(N[C@H](COCc4cccc(OC)c4)c4ccccc4)c23)C1`, for which the IC50 in assay [1] was under 59 nM; in assay [2], 10 to 499 nM; on EGFR (human), 1 to 99 nM.

As for `CN(C)C/C=C/C(=O)N1CCc2c(sc3ncnc(Nc4ccc(F)c(Cl)c4)c23)C1`, the IC50 is under 59 nM in assay [1], 10 to 499 nM in assay [2] and 1 to 99 nM at EGFR (human).

In the case of `C=CC(=O)N1CCc2c(sc3ncnc(N[C@H](COCc4cccc(F)c4)c4ccccc4)c23)C1`, the IC50 in assay [1] is under 59 nM; in assay [2], 10 to 499 nM; against EGFR (human), 1 to 99 nM.

As for `C[C@@H](Nc1ncnc2sc3c(c12)CCN(C(=O)/C=C/CN(C)C)C3)c1ccccc1`, the IC50 was under 59 nM in assay [1], 500 to 2500 nM in assay [2] and 1 to 99 nM against EGFR (human).

As for `CN1CCN(C/C=C/C(=O)N2CCc3c(sc4ncnc(N[C@H](CO)c5ccccc5)c34)C2)CC1`, the IC50 is under 59 nM in assay [1], 500 to 2500 nM in assay [2] and 1 to 99 nM at EGFR (human).

For the molecule `CN(C)C/C=C/C(=O)N1CCc2c(sc3ncnc(N[C@H](CO)c4ccccc4)c23)C1`, the IC50 in assay [1] is under 59 nM; in assay [2], 10 to 499 nM; against EGFR (human), 1 to 99 nM.

For `CCN(CC)C/C=C/C(=O)N1CCc2c(sc3ncnc(N[C@H](CO)c4ccccc4)c23)C1`, the IC50 is under 59 nM in assay [1], 500 to 2500 nM in assay [2] and 1 to 99 nM against EGFR (human).

For `CCN(CC)C/C=C/C(=O)N1CCc2c(sc3ncnc(N[C@H](C)c4ccccc4)c23)C1`, the IC50 in assay [1] was under 59 nM; in assay [2] it was 500 to 2500 nM; against EGFR (human), 1 to 99 nM.

In the case of `C=CC(=O)N1CCc2c(sc3ncnc(N[C@@H](CCO)c4ccccc4)c23)C1`, the IC50 in assay [1] fell in the range of 101 to 900 nM; in assay [2], 500 to 2500 nM; against EGFR (human) it was 301 to 999 nM.

Regarding `C=CS(=O)(=O)N1CCc2c(sc3ncnc(N[C@H](CO)c4ccccc4)c23)C1`, the IC50 was in the range of 60 to 100 nM in assay [1], 500 to 2500 nM in assay [2] and 100 to 300 nM at EGFR (human).

Consider `CN(C)C/C=C/C(=O)N1CCc2c(sc3ncnc(N[C@H](COCc4ccccc4F)c4ccccc4)c23)C1`, for which the IC50 in assay [1] was under 59 nM; in assay [2], 500 to 2500 nM; against EGFR (human), 1 to 99 nM.

With `C=CC(=O)N1CCc2c(sc3ncnc(N[C@H](CC)c4ccccc4)c23)C1`, the results for the IC50 (in assay [1]; in assay [2]; against EGFR (human)) were under 59 nM, 500 to 2500 nM and 1 to 99 nM, respectively.

Take `CN(C)C/C=C/C(=O)N1CCc2c(sc3ncnc(N[C@H](COCc4ccccn4)c4ccccc4)c23)C1`: the results for the IC50 (in assay [1]; in assay [2]; at EGFR (human)) were under 59 nM, 500 to 2500 nM and 1 to 99 nM, respectively.

Consider `C=CC(=O)N1CCc2c(sc3ncnc(N[C@H](COC)c4ccccc4)c23)C1`, for which the IC50 in assay [1] is under 59 nM; in assay [2] it was 10 to 499 nM; against EGFR (human) it was 1 to 99 nM.

As to `C[C@@H](Nc1ncnc2sc3c(c12)CCN(C(=O)/C=C/CNC1CC1)C3)c1ccccc1`, the IC50 in assay [1] is under 59 nM; in assay [2], 500 to 2500 nM; at EGFR (human) it was 1 to 99 nM.

As for `CN(C)C/C=C/C(=O)Nc1cccc(-c2c(-c3ccccc3)oc3ncnc(N[C@H](CO)c4ccccc4)c23)c1`, the IC50 in assay [1] is under 59 nM; in assay [2], 10 to 499 nM; at EGFR (human), 1 to 99 nM.
